According to PMC4793533 (BMC obesity, 2016):

Tests used:
[1] = cited from earlier work
[2] = Pharmacokinetics of radioactivity in plasma and blood after a single oral dose of [9-14C]-oleic acid, with or without formoline L112 pre-treatment; format: in vivo, female Göttingen minipigs; settings: untreated minipigs (group A), single oral 10 mg/kg [9-14C]-oleic acid
Experimental: The study consisted of two treatment groups, each consisting of six female Göttingen minipigs. Group A served as the untreated group (control) and group B was pre-treated with polyglucosamine as follows; the animals of group B were dosed with 2 tablets of 500 mg formoline […] (1 g formoline […] in total) followed by approximately 10 ml of water via a syringe. The 2 tablets of polyglucosamine were inserted into 2 gelatine capsules. The minipigs were trained to eat these capsules. Thereafter, animals of both groups were allowed to drink water ad libitum. […] One animal of the control group A was inadequately dosed and was omitted from the experiment. The dosing capsules were prepared the day before the dose administration based on the bodyweight determined shortly before dosing and stored under nitrogen and protected from light at 2-10 °C. Immediately following dosing all animals received approximately 10 ml of water via a syringe. After 15 min, animals were allowed to drink water and eat their morning meal. This meal was eaten within a few minutes. The animals were housed in stainless steel metabolism cages under test conditions, 48 h prior to the experimental start date (dosing). Urine and faeces was collected at ambient temperature at 24 h time intervals, starting at 2 days prior to dosing and ending at 144 h post-dose. At each collection period, the cage was rinsed with 100 mL demi-water. […] The cannula was rinsed with physiological saline after each blood sampling. After the last blood sampling of the day the cannula was filled with 3 % poly vinyl pyrrolidone (PVP) and heparin, and closed with a lid. Subsamples of whole blood were collected for analysis and the remaining blood was used for preparation of plasma by centrifugation for 10 min at 2000 g. At the end of the experiment, the cages were rinsed thoroughly with water/ethanol/Triton X-100 (100/100/1; v/v/v). The minipigs were intravenously anaesthetized via the catheter with 60 mg sodium-pentobarbital per kg bodyweight. Next, the animals were sacrificed by exsanguination from the carotid artery. At sacrifice, the complete liver and contents of the gastrointestinal tract were collected. Prior to analysis of radioactivity, the faeces, liver and contents of the gastrointestinal tract were homogenized using an ultrathurrax. Radioactivity in all samples was determined by liquid scintillation counting on a Tri-Carb 3100TR liquid scintillation counter using QuantaSmartTM software. All counts were converted to DPM using tSIE/AEC (transformed Spectral Index of external standards coupled to Automatic Efficiency Correction). Radioactivity in faeces, blood and liver tissue was determined by combustion analysis using a Packard Sample Oxidizer System 307. The CO2 formed was mixed with CarbosorbTM and PermafluorTM and measured by LSC. Kinetic analysis of radioactivity (blood/plasma) was performed using WinNonlin® 6.3 applying non-compartmental model analysis. The following kinetic parameters were calculated where the data allow: Cmax, Tmax, half-life (t1/2), the volume of distribution, clearance, the Area under the concentration-time curve (AUC) (or AUC0-n, AUC0-∞) and the Mean Residence Time (MRT). Statistical analysis was assessed by using Mann-Whitney U-test (non-parametric test) using the Brightstat.

[3] = Recovery of radioactivity in excreta (urine, faeces, cage wash), liver and gastrointestinal tract contents; format: in vivo, female Göttingen minipigs
Experimental: The study consisted of two treatment groups, each consisting of six female Göttingen minipigs. Group A served as the untreated group (control) and group B was pre-treated with polyglucosamine as follows; the animals of group B were dosed with 2 tablets of 500 mg formoline […] (1 g formoline […] in total) followed by approximately 10 ml of water via a syringe. The 2 tablets of polyglucosamine were inserted into 2 gelatine capsules. The minipigs were trained to eat these capsules. Thereafter, animals of both groups were allowed to drink water ad libitum. […] The dosing capsules were prepared the day before the dose administration based on the bodyweight determined shortly before dosing and stored under nitrogen and protected from light at 2-10 °C. Immediately following dosing all animals received approximately 10 ml of water via a syringe. After 15 min, animals were allowed to drink water and eat their morning meal. […] The animals were housed in stainless steel metabolism cages under test conditions, 48 h prior to the experimental start date (dosing). Urine and faeces was collected at ambient temperature at 24 h time intervals, starting at 2 days prior to dosing and ending at 144 h post-dose. At each collection period, the cage was rinsed with 100 mL demi-water. […] The cannula was rinsed with physiological saline after each blood sampling. After the last blood sampling of the day the cannula was filled with 3 % poly vinyl pyrrolidone (PVP) and heparin, and closed with a lid. Subsamples of whole blood were collected for analysis and the remaining blood was used for preparation of plasma by centrifugation for 10 min at 2000 g. At the end of the experiment, the cages were rinsed thoroughly with water/ethanol/Triton X-100 (100/100/1; v/v/v). The minipigs were intravenously anaesthetized via the catheter with 60 mg sodium-pentobarbital per kg bodyweight. Next, the animals were sacrificed by exsanguination from the carotid artery. At sacrifice, the complete liver and contents of the gastrointestinal tract were collected. Prior to analysis of radioactivity, the faeces, liver and contents of the gastrointestinal tract were homogenized using an ultrathurrax. Radioactivity in all samples was determined by liquid scintillation counting on a Tri-Carb 3100TR liquid scintillation counter using QuantaSmartTM software. All counts were converted to DPM using tSIE/AEC (transformed Spectral Index of external standards coupled to Automatic Efficiency Correction). Radioactivity in faeces, blood and liver tissue was determined by combustion analysis using a Packard Sample Oxidizer System 307. The CO2 formed was mixed with CarbosorbTM and PermafluorTM and measured by LSC.

[4] = untreated minipigs, not a mass-balance study
[5] = up to 144 h post-dose, group A untreated, mean ± SD

## CCCCCCCC/C=C\CCCCCCCC(=O)O [oleic acid]
[1]; 31 test persons with normal fat assimilation, oral doses, radioactively labelled, after 6 days
  Excreted in the faeces: less than 10%
[1]; untreated subjects
  Absorption after oral administration: absorbed practically completely

## CCCCCCCC/C=[14CH]\CCCCCCCC(=O)O [[9-^14C]-oleic acid]
[2]; blood
  AUC(0-12h): 40.0 ± 4.8 µg·h/g
  AUC(0-24h): 61.7 ± 13.1 µg·h/g
  AUC(0-48h): 88.3 ± 19.0 µg·h/g
  AUC(0-60h): 97.2 ± 20.6 µg·h/g
  AUC(0-72h): 105 ± 22 µg·h/g
  AUCall(0-144h): 139 ± 25 µg·h/g
  Cl: 48.4 ± 7.9 g/h/kg
  Cmax ([9-14C]-oleic acid and/or its metabolites): 8.5 ± 2.2 µg/g
  MRTlast: 43.6 ± 3.1 h
  Tmax ([9-14C]-oleic acid and/or its metabolites): 4 ± 3 h
  Vz: 8860 ± 1848 g/kg
[2]; plasma
  AUC(0-12h): 65.6 ± 6.0 µg·h/g
  AUC(0-24h): 98.4 ± 17.2 µg·h/g
  AUC(0-48h): 136 ± 28 µg·h/g
  AUC(0-60h): 148 ± 31 µg·h/g
  AUC(0-72h): 157 ± 32 µg·h/g
  AUCall(0-144h): 190 ± 38 µg·h/g
  Cl: 40.7 ± 5.5 g/h/kg
  Cmax ([9-14C]-oleic acid and/or its metabolites): 14.1 ± 3.6 µg/g
  MRTlast: 35.9 ± 1.8 h
  Tmax ([9-14C]-oleic acid and/or its metabolites): 4 ± 3 h
  Vz: 7008 ± 2962 g/kg
[3]; 0–24 h, group A untreated, mean ± SD
  Recovery of radioactivity in urine: 0.79 ± 0.05 % of the applied dose
[3]; 24–48 h, group A untreated, mean ± SD
  Recovery of radioactivity in urine: 0.28 ± 0.10 % of the applied dose
[3]; 48–72 h, group A untreated, mean ± SD
  Recovery of radioactivity in urine: 0.09 ± 0.08 % of the applied dose
[3]; 72–96 h, group A untreated, mean ± SD
  Recovery of radioactivity in urine: 0.08 ± 0.05 % of the applied dose
[3]; 96–120 h, group A untreated, mean ± SD
  Recovery of radioactivity in urine: 0.05 ± 0.03 % of the applied dose
[3]; 120–144 h, group A untreated, mean ± SD
  Recovery of radioactivity in urine: 0.03 ± 0.00 % of the applied dose
[3]; -24–0 h (pre-dose), group A untreated, mean ± SD
  Recovery of radioactivity in urine: 0.01 ± 0.00 % of the applied dose
[3]; -48–24 h (pre-dose), group A untreated, mean ± SD
  Recovery of radioactivity in urine: 0.00 ± 0.01 % of the applied dose
[3]; group A untreated, mean ± SD
  Recovery of radioactivity in Cagewash: 0.07 ± 0.07 % of the applied dose
  Recovery of radioactivity in GI-tract contents at sacrifice (144 h post-dose): 0.08 ± 0.04 % of the applied dose
  Recovery of radioactivity in Liver at sacrifice (144 h post-dose): 0.37 ± 0.07 % of the applied dose
  Total excreted (sum urine, faeces, cagewash): 7.90 ± 3.13 % of the applied dose
[3]; [4]
  Overall recovery of the dosed amount of radioactivity (based on the AUC0-12h): 34.7%
  Overall recovery of the dosed amount of radioactivity (based on the Cmax): 13.9%
[3]; [5]
  Recovery of radioactivity in faeces, Total: 6.51 ± 2.88 % of the applied dose
  Recovery of radioactivity in urine, Total: 1.33 ± 0.20 % of the applied dose
